Data as given in US20010011075A1, “5'-SUBSTITUTED-RIBOFURANOSYL BENZIMIDAZOLES AS ANTIVIRAL AGENTS” (priority 1999, published 2001).
Like-named read-outs stand apart in the source and are kept apart here.

Legend:
HFF cells = experiment: Visual cytotoxicity in stationary HFF cells at time of plaque enumeration; type: cell-based, human; settings: visual cytotoxicity on HFF cells at time of HCMV plaque enumeration; read-out: 50% Inhibitory Concentration, Cytotoxicity (HFF)
Method: (§1) KB cells (available from the American Type Culture Collection (ATCC) 12301 Parklawn Drive, […], Md. 20852 (ATCC CCL 17)), an established human cell line derived from an epidermal oral carcinoma, were grown in minimal essential medium (MEM) (Sigma) with Hanks salts (MEM(H)) supplemented with 5% fetal calf serum. Human foreskin fibroblasts (HFF cells) (provided by the University of Michigan Hospital) and African green monkey kidney cells (BSC-1) (ATTC CCL 26) cells were grown in MEM with Earl salts (MEM(E)) supplemented with 10% fetal bovine serum. Cells were passaged according to conventional procedures and as described in Shipman, C., Jr. et al. (1976) Antimicrob. Agents Chemother. Vol. 9:120 and incorporated herein by reference. Briefly, cells were passaged at 1:2 to 1:10 dilutions according to conventional procedures by using 0.05% trypsin plus 0.02% EDTA in a HEPES buffered salt solution. HFF cells were passaged only at 1:2 dilutions.
(§2) Two different methods were used to evaluate cytotoxicity of the compounds. First, cytotoxicity produced in stationary HFF cells was determined by microscopical examination of cells not affected by the virus used in the plaque assay. Second the effect of compounds on KB cells during two population doubling times was determined by crystal violet staining and spectrophotometric quantitation of dye eluted from stained cells. This method has been utilized for the analysis of ganciclovir and zidovudine (See Prichard, M. N. et al. Antiviral Res. (1991) Vol. 35:1060-1065).
(§3) (3) Visual cytotoxicity was scored on HFF cells at the time of HCMV plaque enumeration. Inhibition of KB cell growth was determined as described in the experimental. 3L was used as a positive control for the KB cytotoxicity assay.

HCMV [1] = settings: background statement; times more active than TCRB; cited from earlier work
HSV-1 = HSV-1 ELISA assay; type: cell-based, HSV-1 (KOS strain); settings: read-out: 50% Inhibitory Concentration, Antiviral Activity (ELISA)
Method: (§4) A plaque purified isolate, Po, of the Towne strain of HCMV was used in all experiments and was a gift of Dr. Mark Stinski, University of Iowa. The KOS strain of HSV-1 was used and was provided by Dr. Sandra K. Weller, University of Connecticut. Stock preparations of HCMV and HSV-1 were prepared and titered as known to those of skill and the art and described in Turk, S. R. et al. (1987) Antimicrob. Agents Chemother. Vol. 31:544-550 and Shipman, C., Jr., et al. (1990) J. Virol. Methods Vol. 28:101-106, each incorporated herein by reference.
(§5) HCMV plaque reduction experiments were performed with monolayer cultures of HFF cells by a procedure similar to that referenced above for titration of the viruses and described in Devivar, R. V. et al. (1994) J. Med. Chem. Vol. 37:2942-2949. Activity of compounds against HSV-1 was evaluated using an ELISA assay.
ELISA techniques according to standard procedures were also used to determine activity against HSV-1. Drug effects were calculated as a percentage of the reduction in virus titers in the presence of each drug concentration compared to the titer obtained in the absence of drug. Ganciclovir was used as a positive control in all experiments.
(§6) Dose-response relationships can be used to compare drug effects. These are constructed by linearly regressing the percent inhibition of parameters derived in the preceding sections against log drug concentrations. The 50 inhibitory (I50) concentrations were calculated from the regression lines using the methods described by Goldstein. See Goldstein, A., Biostatistics: An Introductory Text, MacMillan, New York, pp. 156-161 (1964), incorporated herein by reference.
(§7) (2) A plaque assay was used to quantitate anti HCMV activity, an ELISA assay was used to quantitate activity against HSV-1. DHPG (ganciclovir) was used as a positive control for the HCMV assay.

KB cells = experiment: Inhibition of KB cell growth (crystal violet staining); type: cell-based, human; settings: inhibition of KB cell growth; read-out: 50% Inhibitory Concentration, Cytotoxicity (KB)
Method: as §1, §2, §3

HCMV [2] = experiment: HCMV plaque (focus) reduction assay in HFF cells; type: cell-based, HCMV (Towne strain); settings: for IC50: HCMV plaque assay, HFF cells, averages from two or more experiments, read-out: 50% Inhibitory Concentration, Antiviral Activity (plaque); for anti-HCMV activity (in words): Table 1
Method: as §4, §5
The effect of compounds of the replication of HCMV was measured using a plaque (focus) reduction assay. For the former, HFF cells in 24-well culture dishes were infected with approximately 50 p.f.u. of HCMV per well using the procedures detailed above. Compounds dissolved in growth medium were added in four to six selected concentrations to duplicate wells following virus adsorption. Following incubation at 37° C. for 7 to 10 days, cell sheets were fixed, stained and microscopic plaques were enumerated as described above. Drug effects were calculated as a percentage of reduction in number of plaques in the presence of each drug concentration compared to the number observed in the absence of drug. DHPG (ganciclovir) was used as a positive control in all experiments.
as §6, §7

[3] = Visual cytotoxicity in stationary HFF cells at time of plaque enumeration; type: cell-based, human; settings: human, stationary human foreskin fibroblasts (HFF cells); visual cytotoxicity on HFF cells at time of HCMV plaque enumeration; read-out: 50% Inhibitory Concentration, Cytotoxicity (HFF)
Method: as §1, §2, §3

[4] = Inhibition of KB cell growth (crystal violet staining); type: cell-based, human; settings: human, KB cells (human epidermal oral carcinoma line); inhibition of KB cell growth; read-out: 50% Inhibitory Concentration, Cytotoxicity (KB)
Method: as §1, §2, §3

L1210 cells = experiment: Antiproliferative activity: growth of L1210 cells; type: cell-based, mouse; settings: concentration required to decrease final growth rate of L1210 cells to half of control rate, read-out: 50% Inhibitory Concentration, Antiproliferative Activity
Method: Antiproliferative activity was evaluated by measuring the effect of the compounds on the growth of L1210 cells, a mouse leukemia cell line which is generally available and can be obtained from Cancer Chemotherapy Center, Japanese Foundation for Cancer Research. Antiproliferative activity was measured using conventional procedures and as described in Wotring, L. L. and Townsend, L. B., (1979) Cancer Res. Vol. 39:3018-3023 and Cory, A. H. et al. (1991) Cancer Comm. Vol. 3:207-212, each incorporated herein by reference.
(8) The concentration required to decrease the final growth rate of L1210 cells to half of the control rate. All values are averages from two or more experiments.

[5] = averages from two or more experiments
[6] = Human alphaherpesvirus 1, averages from two or more experiments

| IC50 (HSV-1; [6]) | melting point | IC50 (HCMV [2]; Human betaherpesvirus 5, HFF) | IC50 (L1210 cells; Mus musculus) | Compound | IC50 (HFF cells) | activity relative to TCRB (HCMV [1]) | IC50 (HSV-1; [5]) | IC50 (KB cells) | IC50 (HCMV [2]) | IC50 [3] | IC50 at 2 population doubling times [4] | anti-HCMV activity (in words) (HCMV [2]) | IC50 (L1210 cells) |
| --- | --- | --- | --- | --- | --- | --- | --- | --- | --- | --- | --- | --- | --- |
| > 100 µM | 125 to 126 °C | 4.3 µM |  | CCOC[C@H]1O[C@@H](n2c(Cl)nc3cc(Cl)c(Cl)cc32)[C@H](OC(C)=O)[C@@H]1OC(C)=O [Compound 7b, 2,5,6-trichloro-1-(2′,3′-di-O-acetyl-5′-O-ethyl-β-D-ribofuranosyl)benzimidazole] |  |  |  |  |  | 33 µM | 60 µM |  |  |
| > 100 µM | 98 to 100 °C | 8 µM |  | CCCCCCOC[C@H]1O[C@@H](n2c(Cl)nc3cc(Cl)c(Cl)cc32)[C@H](OC(C)=O)[C@@H]1OC(C)=O [Compound 7d, 2,5,6-trichloro-1-(2′,3′-di-O-acetyl-5′-O-hexyl-β-D-ribofuranosyl)benzimidazole] |  |  |  |  |  | 32 µM | 60 µM | decreased activity over the butyl compound (7c) |  |
| > 100 µM | 88 to 90 °C | 4.6 µM | 59 µM | CCOC[C@H]1O[C@@H](n2c(Cl)nc3cc(Cl)c(Cl)cc32)[C@H](O)[C@@H]1O [Compound 8b, 2,5,6-trichloro-1-(5′-O-ethyl-β-D-ribofuranosyl)benzimidazole] |  |  |  |  |  | 26 µM | 80 µM |  |  |
| > 100 µM | 70 to 72 °C | 14.2 µM | > 100 µM | CCCCOC[C@H]1O[C@@H](n2c(Cl)nc3cc(Cl)c(Cl)cc32)[C@H](O)[C@@H]1O [Compound 8c, 2,5,6-trichloro-1-(5′-O-butyl-β-D-ribofuranosyl)benzimidazole] |  |  |  |  |  | 32 µM | 60 µM |  |  |

The next lines start with the compound.

| Compound | IC50 (HSV-1; [6]) | melting point | IC50 (HCMV [2]; Human betaherpesvirus 5, HFF) | IC50 (L1210 cells; Mus musculus) | IC50 (HFF cells) | activity relative to TCRB (HCMV [1]) | IC50 (HSV-1; [5]) | IC50 (KB cells) | IC50 (HCMV [2]) | IC50 [3] | IC50 at 2 population doubling times [4] | anti-HCMV activity (in words) (HCMV [2]) | IC50 (L1210 cells) |
| --- | --- | --- | --- | --- | --- | --- | --- | --- | --- | --- | --- | --- | --- |
| C[C@H]1O[C@@H](n2c(Cl)nc3cc(Cl)c(Cl)cc32)[C@H](O)[C@@H]1O [Compound 2, 2,5,6-trichloro-1-(5′-deoxy-β-D-ribofuranosyl)benzimidazole, reference compound] |  |  |  |  | 77 µM | about 10 times | > 100 µM | 150 µM | 0.36 µM |  |  |  |  |
| COC[C@H]1O[C@@H](n2c(Cl)nc3cc(Cl)c(Cl)cc32)[C@H](OC(C)=O)[C@@H]1OC(C)=O [Compound 7a, 2,5,6-trichloro-1-(2′,3′-di-O-acetyl-5′-O-methyl-β-D-ribofuranosyl)benzimidazole] | > 100 µM | 150 to 151 °C | 2.8 µM |  |  |  |  |  |  | 26 µM | 80 µM |  |  |
| CCCCOC[C@H]1O[C@@H](n2c(Cl)nc3cc(Cl)c(Cl)cc32)[C@H](OC(C)=O)[C@@H]1OC(C)=O [Compound 7c, 2,5,6-trichloro-1-(2′,3′-di-O-acetyl-5′-O-butyl-β-D-ribofuranosyl)benzimidazole] | > 100 µM | 143 to 144 °C | 21 µM |  |  |  |  |  |  | 66 µM | > 100 µM |  |  |
| COC[C@H]1O[C@@H](n2c(Cl)nc3cc(Cl)c(Cl)cc32)[C@H](O)[C@@H]1O [Compound 8a, 2,5,6-trichloro-1-(5′-O-methyl-β-D-ribofuranosyl)benzimidazole] | > 100 µM | 104 to 105 °C | 3 µM | 60 µM |  |  |  |  |  | 26 µM | 90 µM |  |  |
| CSC[C@H]1O[C@@H](n2c(Cl)nc3cc(Cl)c(Cl)cc32)[C@H](O)[C@@H]1O [Compound 17b, 2,5,6-trichloro-1-(5′-deoxy-5′-methylthio-β-D-ribofuranosyl)benzimidazole] |  |  |  |  | 32 µM |  | > 100 µM | > 100 µM | 4.5 µM |  |  | equally active as the 5′-O-ethyl derivative (8b) | > 100 µM |
